Laboratory results taken from ChEMBL document CHEMBL2203208, “Synthesis and structure-activity relationships of dual PI3K/mTOR inhibitors based on a 4-amino-6-methyl-1,3,5-triazine sulfonamide scaffold” (Bioorg Med Chem Lett, 2012).
In brackets after ≈: the same amount, converted by molar mass.

Assays:
[1] = target: Phosphatidylinositol 4,5-bisphosphate 3-kinase catalytic subunit alpha isoform (Homo sapiens, UniProt P42336)
Description: Inhibition of human N-terminal polyHis-tagged PI3K p110alpha expressed in baculovirus infected Hi5 cells using Phosphatidylinositol-4,5-bisphosphate as substrate after 20 mins by AlphaScreen assay

[2] = physchem; settings: simulated intestinal fluid
Description: Equilibrium solubility of the compound in simulated intestinal fluid after 48 to 72 hrs

[3] = physchem; settings: phosphate buffered saline
Description: Equilibrium solubility of the compound in phosphate buffered saline after 48 to 72 hrs

[4] = physchem; settings: 0.01N HCl
Description: Equilibrium solubility of the compound in 0.01N HCl after 48 to 72 hrs

[5] = target: Phosphatidylinositol 4,5-bisphosphate 3-kinase catalytic subunit gamma isoform (Homo sapiens, UniProt P48736); parameters: species or system BTI-TN-5B1-4
[6] = target: Serine/threonine-protein kinase mTOR (Homo sapiens, UniProt P42345)
Description: Inhibition of recombinant N-terminal GST-tagged mTOR using GFP-4EBP as substrate after 90 mins by TR-FRET assay

[7] = target: T1, Phosphatidylinositol 4,5-bisphosphate 3-kinase catalytic subunit delta isoform (Homo sapiens, UniProt O00329)
T1 sequence (O00329 whole entry): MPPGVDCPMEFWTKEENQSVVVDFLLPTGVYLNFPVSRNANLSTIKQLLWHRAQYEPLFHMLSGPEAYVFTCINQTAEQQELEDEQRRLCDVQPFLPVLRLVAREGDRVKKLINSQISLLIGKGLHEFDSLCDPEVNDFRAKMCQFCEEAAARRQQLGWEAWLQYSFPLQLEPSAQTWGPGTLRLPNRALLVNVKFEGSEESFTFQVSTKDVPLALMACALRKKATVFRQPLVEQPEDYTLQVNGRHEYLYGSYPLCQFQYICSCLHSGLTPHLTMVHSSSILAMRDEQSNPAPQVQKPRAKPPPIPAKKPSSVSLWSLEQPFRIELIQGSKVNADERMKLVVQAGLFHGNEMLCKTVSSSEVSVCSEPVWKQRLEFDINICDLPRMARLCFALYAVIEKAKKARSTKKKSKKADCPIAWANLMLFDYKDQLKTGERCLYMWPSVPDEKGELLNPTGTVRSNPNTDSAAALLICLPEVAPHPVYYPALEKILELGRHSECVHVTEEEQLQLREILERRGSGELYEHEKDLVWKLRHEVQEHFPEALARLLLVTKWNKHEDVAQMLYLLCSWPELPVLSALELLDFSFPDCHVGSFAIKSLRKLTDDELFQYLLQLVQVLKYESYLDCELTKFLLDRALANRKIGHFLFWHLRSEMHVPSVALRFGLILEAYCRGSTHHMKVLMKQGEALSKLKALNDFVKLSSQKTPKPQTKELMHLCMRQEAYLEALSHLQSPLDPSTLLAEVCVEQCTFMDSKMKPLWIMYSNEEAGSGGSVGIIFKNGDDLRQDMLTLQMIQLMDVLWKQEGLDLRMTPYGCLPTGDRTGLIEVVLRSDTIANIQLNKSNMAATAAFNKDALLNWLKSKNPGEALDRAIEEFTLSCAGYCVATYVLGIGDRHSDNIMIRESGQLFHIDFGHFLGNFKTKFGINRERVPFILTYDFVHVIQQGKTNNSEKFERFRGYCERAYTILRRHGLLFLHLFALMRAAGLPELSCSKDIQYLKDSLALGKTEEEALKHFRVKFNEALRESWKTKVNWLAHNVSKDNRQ
Description: Inhibition of human N-terminal polyHis-tagged PI3K p110delta expressed in baculovirus infected Hi5 cells using Phosphatidylinositol-4,5-bisphosphate as substrate after 20 mins by AlphaScreen assay

[8] = target: Phosphatidylinositol 4,5-bisphosphate 3-kinase catalytic subunit beta isoform (Homo sapiens, UniProt P42338)
Description: Inhibition of human N-terminal polyHis-tagged PI3K p110beta expressed in baculovirus infected Hi5 cells using Phosphatidylinositol-4,5-bisphosphate as substrate after 20 mins by AlphaScreen assay

[9] = in vivo; settings: Sprague-Dawley, rat, plasma, po, 2 mg/kg
[10] = in vivo; settings: Sprague-Dawley, rat, po, 2 mg/kg
[11] = in vivo; settings: Sprague-Dawley, rat, iv, 1 mg/kg
Description: (§1) Mean residence time in Sprague-Dawley rat at 1 mg/kg, iv

[12] = in vivo; settings: Sprague-Dawley, rat, iv, 1 mg/kg; remark: listed apart in the source
[13] = in vivo; settings: Sprague-Dawley, rat, iv, 1 mg/kg; remark: listed apart in the source
Description: (§2) Clearance in Sprague-Dawley rat at 1 mg/kg, iv

[14] = in vitro; settings: human, liver microsomes
Description: Clearance in human liver microsomes at 1 uM after 30 mins in presence of NADPH

[15] = in vitro; settings: rat, liver microsomes
Description: Clearance in rat liver microsomes at 1 uM after 30 mins in presence of NADPH

[16] = Plasma protein binding in mouse; assay type: ADME, cell-free; settings: read-out: PPB (converted)
[17] = Plasma protein binding in dog; assay type: ADME, cell-free, Canis lupus familiaris; settings: read-out: PPB (converted)
[18] = Plasma protein binding in rat; assay type: ADME, cell-free; settings: read-out: PPB (converted)
[19] = Plasma protein binding in human; assay type: ADME, cell-free; settings: read-out: PPB (converted)
[20] = target: Voltage-gated inwardly rectifying potassium channel KCNH2 (Homo sapiens, UniProt Q12809); experiment: Inhibition of human ERG
[21] = system: rodent MDR1; experiment: Permeability across pig LLC-PK1 cells expressing rodent MDR1; assay type: ADME, cell-based, Sus scrofa; settings: read-out: permeability
[22] = system: human MDR1; experiment: Permeability across pig LLC-PK1 cells expressing human MDR1; assay type: ADME, cell-based, Sus scrofa; settings: read-out: permeability
[23] = system: Mus musculus; experiment: Inhibition of PI3K in human U87MG cells xenografted in po dosed CD1 nu/nu mouse assessed as plasma concentration required for inhibition of AKT ser473 phosphorylation after 6 hrs; assay type: functional, organism-based, U-87MG ATCC; settings: CD1, U-87 MG
[24] = target: Phosphatidylinositol 3-kinase catalytic subunit type 3 (Homo sapiens, UniProt Q8NEB9); experiment: Inhibition of human VPS34 using phosphatidylinositol/phosphatidylserine as substrate after 30 mins by fluorescence-based immunoassay
[25] = species: Mus musculus; settings: CD1, U-87MG ATCC
Description: Inhibition of PI3K-mediated AKT Ser473 phosphorylation in human U87MG cells xenografted in po dosed CD1 nu/nu mouse after 6 hrs

[26] = species: Rattus norvegicus; settings: in vivo, po, 2 mg/kg
[27] = species: Rattus norvegicus; settings: in vivo, po, 2 mg/kg; remark: listed apart in the source
[28] = species: Rattus norvegicus; settings: in vivo, iv, 1 mg/kg
Description: as §2

[29] = species: Rattus norvegicus; settings: in vivo, iv, 1 mg/kg; remark: listed apart in the source
Description: as §1

[30] = species: Rattus norvegicus; settings: in vivo, iv, 1 mg/kg; remark: listed apart in the source

Chain of Phosphatidylinositol 4,5-bisphosphate 3-kinase catalytic subunit beta isoform (P42338 whole entry, canonical isoform): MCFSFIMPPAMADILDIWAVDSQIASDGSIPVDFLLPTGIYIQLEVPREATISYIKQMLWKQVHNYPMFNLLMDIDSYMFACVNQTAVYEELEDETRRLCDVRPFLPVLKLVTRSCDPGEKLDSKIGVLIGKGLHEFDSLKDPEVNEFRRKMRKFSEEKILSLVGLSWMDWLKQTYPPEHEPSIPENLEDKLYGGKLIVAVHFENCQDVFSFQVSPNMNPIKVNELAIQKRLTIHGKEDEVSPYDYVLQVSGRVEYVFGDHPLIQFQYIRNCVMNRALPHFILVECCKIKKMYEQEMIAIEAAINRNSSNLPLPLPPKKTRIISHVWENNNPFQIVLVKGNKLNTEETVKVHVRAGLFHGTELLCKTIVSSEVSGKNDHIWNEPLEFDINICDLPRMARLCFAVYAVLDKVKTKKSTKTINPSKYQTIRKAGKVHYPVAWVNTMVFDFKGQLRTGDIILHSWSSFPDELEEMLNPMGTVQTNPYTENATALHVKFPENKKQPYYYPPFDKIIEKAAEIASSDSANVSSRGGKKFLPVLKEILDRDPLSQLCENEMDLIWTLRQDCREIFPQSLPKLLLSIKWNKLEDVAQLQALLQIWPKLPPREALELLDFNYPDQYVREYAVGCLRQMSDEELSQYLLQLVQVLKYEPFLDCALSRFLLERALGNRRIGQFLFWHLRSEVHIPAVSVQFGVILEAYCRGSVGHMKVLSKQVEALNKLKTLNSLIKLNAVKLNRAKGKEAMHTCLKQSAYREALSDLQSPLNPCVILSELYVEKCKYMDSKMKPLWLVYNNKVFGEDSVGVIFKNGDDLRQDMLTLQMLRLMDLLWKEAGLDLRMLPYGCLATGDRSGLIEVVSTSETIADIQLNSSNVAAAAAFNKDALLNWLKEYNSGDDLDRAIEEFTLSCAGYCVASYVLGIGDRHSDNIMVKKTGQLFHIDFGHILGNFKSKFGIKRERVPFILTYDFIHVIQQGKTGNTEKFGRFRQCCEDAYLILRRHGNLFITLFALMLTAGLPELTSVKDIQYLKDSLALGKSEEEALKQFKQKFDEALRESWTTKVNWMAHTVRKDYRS
Chain of Phosphatidylinositol 4,5-bisphosphate 3-kinase catalytic subunit gamma isoform (P48736 whole entry, canonical isoform): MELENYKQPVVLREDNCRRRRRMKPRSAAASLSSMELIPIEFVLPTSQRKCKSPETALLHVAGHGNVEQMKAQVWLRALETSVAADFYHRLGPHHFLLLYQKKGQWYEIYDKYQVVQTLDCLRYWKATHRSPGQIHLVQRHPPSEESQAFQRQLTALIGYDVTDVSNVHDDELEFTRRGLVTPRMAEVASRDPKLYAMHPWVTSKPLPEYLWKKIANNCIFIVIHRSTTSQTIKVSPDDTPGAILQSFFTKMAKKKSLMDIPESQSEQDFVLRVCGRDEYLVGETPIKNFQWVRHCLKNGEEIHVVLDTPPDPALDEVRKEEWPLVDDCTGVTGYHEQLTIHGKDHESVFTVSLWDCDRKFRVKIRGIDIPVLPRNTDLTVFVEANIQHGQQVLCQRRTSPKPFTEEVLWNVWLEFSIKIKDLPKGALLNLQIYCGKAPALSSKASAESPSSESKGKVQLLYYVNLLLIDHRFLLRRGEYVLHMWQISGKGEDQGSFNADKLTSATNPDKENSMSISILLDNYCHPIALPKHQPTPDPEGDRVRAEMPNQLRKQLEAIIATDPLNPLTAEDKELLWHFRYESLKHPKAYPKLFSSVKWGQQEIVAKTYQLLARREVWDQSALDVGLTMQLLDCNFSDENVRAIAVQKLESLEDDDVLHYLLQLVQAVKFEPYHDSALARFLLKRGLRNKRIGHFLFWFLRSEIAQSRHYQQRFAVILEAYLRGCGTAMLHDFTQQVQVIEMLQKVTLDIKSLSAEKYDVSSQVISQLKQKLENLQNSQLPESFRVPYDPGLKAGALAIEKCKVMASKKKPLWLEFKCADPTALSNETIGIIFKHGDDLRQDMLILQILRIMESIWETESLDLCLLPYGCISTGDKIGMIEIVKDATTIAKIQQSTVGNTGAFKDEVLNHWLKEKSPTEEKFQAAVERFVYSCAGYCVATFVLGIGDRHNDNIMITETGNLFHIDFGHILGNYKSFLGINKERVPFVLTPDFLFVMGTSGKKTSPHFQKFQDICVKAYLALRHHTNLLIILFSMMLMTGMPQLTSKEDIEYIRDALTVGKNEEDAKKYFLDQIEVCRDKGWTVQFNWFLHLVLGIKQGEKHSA
Chain of Phosphatidylinositol 4,5-bisphosphate 3-kinase catalytic subunit alpha isoform (P42336 whole entry, canonical isoform): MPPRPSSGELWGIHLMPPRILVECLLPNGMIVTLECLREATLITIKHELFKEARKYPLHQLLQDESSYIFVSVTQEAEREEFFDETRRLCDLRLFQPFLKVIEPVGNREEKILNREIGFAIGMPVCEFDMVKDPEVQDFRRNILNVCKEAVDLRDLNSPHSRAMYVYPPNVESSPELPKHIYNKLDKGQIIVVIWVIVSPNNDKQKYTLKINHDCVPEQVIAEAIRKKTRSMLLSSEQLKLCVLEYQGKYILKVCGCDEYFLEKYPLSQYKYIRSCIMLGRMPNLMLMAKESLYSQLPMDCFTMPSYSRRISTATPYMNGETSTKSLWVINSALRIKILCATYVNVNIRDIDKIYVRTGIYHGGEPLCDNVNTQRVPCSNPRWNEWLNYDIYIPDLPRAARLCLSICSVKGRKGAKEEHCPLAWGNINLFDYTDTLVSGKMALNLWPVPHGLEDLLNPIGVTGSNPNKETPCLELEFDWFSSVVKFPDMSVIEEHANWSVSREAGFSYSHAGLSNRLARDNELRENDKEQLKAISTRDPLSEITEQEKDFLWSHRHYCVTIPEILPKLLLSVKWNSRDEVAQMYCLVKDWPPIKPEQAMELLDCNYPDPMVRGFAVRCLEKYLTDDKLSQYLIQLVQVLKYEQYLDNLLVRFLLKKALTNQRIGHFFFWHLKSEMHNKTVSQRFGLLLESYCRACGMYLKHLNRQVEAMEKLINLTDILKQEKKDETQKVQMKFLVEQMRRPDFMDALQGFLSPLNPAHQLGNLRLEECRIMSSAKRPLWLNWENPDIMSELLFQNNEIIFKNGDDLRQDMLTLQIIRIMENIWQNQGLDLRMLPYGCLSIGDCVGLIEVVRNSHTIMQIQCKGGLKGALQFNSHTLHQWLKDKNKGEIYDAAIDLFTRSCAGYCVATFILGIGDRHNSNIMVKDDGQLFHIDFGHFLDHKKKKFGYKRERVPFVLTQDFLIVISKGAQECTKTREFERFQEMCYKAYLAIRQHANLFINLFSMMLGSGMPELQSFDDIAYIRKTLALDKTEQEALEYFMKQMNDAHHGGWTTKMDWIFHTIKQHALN
Chain of Phosphatidylinositol 3-kinase catalytic subunit type 3 (Q8NEB9 whole entry): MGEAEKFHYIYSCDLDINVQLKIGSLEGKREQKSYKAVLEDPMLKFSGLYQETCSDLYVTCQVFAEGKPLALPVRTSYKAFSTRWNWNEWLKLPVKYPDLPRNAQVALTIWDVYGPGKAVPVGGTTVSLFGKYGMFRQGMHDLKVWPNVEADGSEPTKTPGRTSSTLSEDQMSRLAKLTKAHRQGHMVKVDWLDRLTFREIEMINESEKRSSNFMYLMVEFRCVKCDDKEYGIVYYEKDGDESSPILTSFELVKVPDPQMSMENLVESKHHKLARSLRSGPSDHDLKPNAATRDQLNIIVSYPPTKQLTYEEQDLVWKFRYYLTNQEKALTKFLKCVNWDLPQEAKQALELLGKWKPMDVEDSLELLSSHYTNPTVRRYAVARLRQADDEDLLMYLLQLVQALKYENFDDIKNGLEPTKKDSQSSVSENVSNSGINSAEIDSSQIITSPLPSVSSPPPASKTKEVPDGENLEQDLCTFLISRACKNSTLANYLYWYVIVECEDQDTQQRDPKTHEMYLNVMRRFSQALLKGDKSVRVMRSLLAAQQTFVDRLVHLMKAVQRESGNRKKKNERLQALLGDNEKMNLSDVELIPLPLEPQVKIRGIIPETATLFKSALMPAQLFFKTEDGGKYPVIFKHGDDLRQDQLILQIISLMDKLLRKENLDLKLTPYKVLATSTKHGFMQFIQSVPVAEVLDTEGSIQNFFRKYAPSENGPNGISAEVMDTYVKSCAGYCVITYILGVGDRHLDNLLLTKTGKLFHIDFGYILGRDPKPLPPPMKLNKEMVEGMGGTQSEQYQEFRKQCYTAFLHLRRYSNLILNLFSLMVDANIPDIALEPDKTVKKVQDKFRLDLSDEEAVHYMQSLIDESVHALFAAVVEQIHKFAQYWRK

Row | Ki [1] [µM] | solubility thermodynamic [2] [µg/mL] | solubility thermodynamic [3] [µg/mL] | solubility thermodynamic [4] [µg/mL] | SMILES | other results
1 | 0.311 | – | – | – | Cc1nc(N)nc(-c2cc(Cl)cnc2Nc2cnc(Cl)c(N(C)S(C)(=O)=O)c2)n1 | –
2 | 0.013 | – | – | – | Cc1nc(N)nc(-c2cc(Cl)cnc2Nc2cnc(Cl)c(NS(=O)(=O)c3cccnc3)c2)n1 | –
3 | 0.011 | 1000 (≈ 2290 µM) | 3600 (≈ 8260 µM) | 4700 (≈ 10800 µM) | Cc1nc(N)nc(-c2cccnc2Nc2cnc(Cl)c(NS(=O)(=O)N(C)C)c2)n1 | –
4 | 0.0093 | 1 (≈ 2.15 µM) | 4 (≈ 8.59 µM) | 3 (≈ 6.44 µM) | COc1cnc(Nc2cnc(Cl)c(NS(=O)(=O)N(C)C)c2)c(-c2nc(C)nc(N)n2)c1 | Ki [5]: 0.0022 µM; IC50 [6]: 0.074 µM; Ki [7]: 0.0011 µM; Ki [8]: 0.0047 µM; AUC [9]: 859 ng·h/mL; bioavailability [10]: 22%; MRT [11]: 2 h; Vd [12]: 1.01 L/kg; clearance [13]: 8.67 mL/min/kg; microsomal CLint at 0.5 h, 1 µM [14]: 26 µL/min/mg; microsomal CLint at 0.5 h, 1 µM [15]: 20 µL/min/mg
5 | 0.0077 | 11600 (≈ 24700 µM) | 2000 (≈ 4250 µM) | 1000 (≈ 2130 µM) | Cc1nc(N)nc(-c2cc(Cl)cnc2Nc2cnc(Cl)c(NS(=O)(=O)N(C)C)c2)n1 | fraction unbound [16]: 0.0287; fraction unbound [17]: 0.0035; fraction unbound [18]: 0.002; fraction unbound [19]: 0.002; inhibition (INH) [20]: Not Active; Papp [21]: 12.2 ×10⁻⁶ cm/s; Papp [22]: 12.2 ×10⁻⁶ cm/s; EC50 [23]: 0.091 µg/mL (≈ 0.193 µM); IC50 [24]: 0.606 µM; Ki [5]: 0.001 µM; Ki [7]: 0.0004 µM; Ki [8]: 0.0006 µM; inhibition [25]: Dose-dependent effect; AUC [9]: 3360 ng·h/mL; bioavailability [10]: 63%; MRT [11]: 2.5 h; Vd [12]: 0.97 L/kg; clearance [13]: 6.5 mL/min/kg; microsomal CLint at 0.5 h, 1 µM [14]: 47 µL/min/mg; microsomal CLint at 0.5 h, 1 µM [15]: 27 µL/min/mg
6 | 0.029 | 3200 (≈ 6220 µM) | 1000 (≈ 1940 µM) | 3200 (≈ 6220 µM) | COCCN(C)S(=O)(=O)Nc1cc(Nc2ncc(Cl)cc2-c2nc(C)nc(N)n2)cnc1Cl | –
7 | 0.0097 | 8 (≈ 15.8 µM) | 11 (≈ 21.7 µM) | 200 (≈ 395 µM) | Cc1nc(N)nc(-c2cc(CN3CCOCC3)cnc2Nc2cnc(Cl)c(NS(C)(=O)=O)c2)n1 | –
8 | 0.016 | 46200 (≈ 94900 µM) | 2900 (≈ 5960 µM) | 5800 (≈ 11900 µM) | Cc1nc(N)nc(-c2cccnc2Nc2cnc(Cl)c(NS(=O)(=O)c3ccc(F)cc3)c2)n1 | –
9 | 0.0035 | 1000 (≈ 2270 µM) | 1000 (≈ 2270 µM) | 1000 (≈ 2270 µM) | Cc1nc(N)nc(-c2cc(Cl)cnc2Nc2cnc(Cl)c(NS(C)(=O)=O)c2)n1 | –
10 | 0.114 | – | – | – | COc1ncc(Nc2ncc(Cl)cc2-c2nc(C)nc(N)n2)cc1NS(C)(=O)=O | –
11 | 0.0019 | 16 (≈ 29.9 µM) | 11 (≈ 20.6 µM) | 200 (≈ 374 µM) | Cc1nc(N)nc(-c2cc(CN3CCOCC3)cnc2Nc2cnc(Cl)c(NS(=O)(=O)N(C)C)c2)n1 | –
12 | 0.013 | 1 (≈ 1.97 µM) | 14 (≈ 27.6 µM) | 5 (≈ 9.84 µM) | COc1cnc(Nc2cnc(Cl)c(NS(=O)(=O)N3CCOCC3)c2)c(-c2nc(C)nc(N)n2)c1 | –
13 | 0.36 | – | – | – | Cc1nc(N)nc(-c2cccnc2Nc2cnc(Cl)c(N)c2)n1 | –
14 | 0.011 | 1 (≈ 2.29 µM) | 1 (≈ 2.29 µM) | 1 (≈ 2.29 µM) | COc1cnc(Nc2cnc(Cl)c(NS(C)(=O)=O)c2)c(-c2nc(C)nc(N)n2)c1 | AUC [26]: 419 ng·h/mL; F [27]: 1.8%; CL [28]: 3.5 mL/min/kg; MRT [11]: 1.3 h; Vd [12]: 0.28 L/kg; microsomal CLint at 0.5 h, 1 µM [14]: < 14 µL/min/mg; microsomal CLint at 0.5 h, 1 µM [15]: < 14 µL/min/mg
15 | 0.011 | 3600 (≈ 8320 µM) | 1000 (≈ 2310 µM) | 1000 (≈ 2310 µM) | Cc1nc(N)nc(-c2cccnc2Nc2cnc(Cl)c(NS(=O)(=O)C3CC3)c2)n1 | –
16 | 0.161 | – | – | – | Cc1nc(N)nc(-c2cc(Cl)cnc2Nc2cnc(C)c(NS(C)(=O)=O)c2)n1 | –
17 | 0.018 | 43 (≈ 89.4 µM) | 34 (≈ 70.7 µM) | 33 (≈ 68.6 µM) | COCCOc1cnc(Nc2cnc(Cl)c(NS(C)(=O)=O)c2)c(-c2nc(C)nc(N)n2)c1 | Ki [5]: 0.014 µM; IC50 [6]: 0.032 µM; Ki [7]: 0.0061 µM; Ki [8]: 0.016 µM; AUC [9]: 1210 ng·h/mL; bioavailability [10]: 28%; MRT [11]: 1.1 h; Vd [12]: 0.52 L/kg; clearance [13]: 7.67 mL/min/kg; microsomal CLint at 0.5 h, 1 µM [14]: < 14 µL/min/mg; microsomal CLint at 0.5 h, 1 µM [15]: < 14 µL/min/mg
18 | 0.02 | 46200 (≈ 114000 µM) | 2900 (≈ 7130 µM) | 5800 (≈ 14300 µM) | Cc1nc(N)nc(-c2cccnc2Nc2cnc(Cl)c(NS(C)(=O)=O)c2)n1 | IC50 [24]: 1.29 µM; Ki [5]: 0.0024 µM; IC50 [6]: 0.198 µM; Ki [7]: 0.0012 µM; Ki [8]: 0.0044 µM; AUC [26]: 4238 ng·h/mL; F [27]: 33%; MRT [29]: 4.5 h; Vdss [30]: 0.4 L/kg; CL [28]: 6.5 mL/min/kg; microsomal CLint at 0.5 h, 1 µM [14]: < 14 µL/min/mg; microsomal CLint at 0.5 h, 1 µM [15]: < 14 µL/min/mg
19 | 0.0086 | 11100 (≈ 21700 µM) | 1000 (≈ 1950 µM) | 1000 (≈ 1950 µM) | Cc1nc(N)nc(-c2cc(Cl)cnc2Nc2cnc(Cl)c(NS(=O)(=O)N3CCOCC3)c2)n1 | –
20 | 0.043 | – | – | – | Cc1nc(N)nc(-c2cccnc2Nc2cnc(Cl)c(NS(=O)(=O)N(C)C(C)C)c2)n1 | –
21 | 0.016 | – | – | – | Cc1nc(N)nc(-c2cccnc2Nc2cnc(Cl)c(NS(=O)(=O)N3CCOCC3)c2)n1 | –
